Laboratory results reported in ChEMBL document CHEMBL2413072, “Synthesis and in vitro anticancer studies of novel C-2 arylidene congeners of lantadenes” (2013).
Calls of active or inactive are those of the source. The calls are words filed in the database; no cut-off is given here.

What was measured:
Assay type in all cases: functional
[1] = test system: NCI-H226; test: Growth inhibition of human NCI-H226 cells by sulforhodamine B assay
[2] = Growth inhibition of human HCC2998 cells assessed as cell growth at 10^-4 M by sulforhodamine B assay; conditions: HCC 2998, read-out: Activity
[3] = test system: Hs-578T; test: Growth inhibition of human Hs 578T cells assessed as growth inhibition at 10 uM by sulforhodamine B assay
[4] = test system: LOX IMVI; test: Growth inhibition of human LOXIMVI cells assessed as cell growth at 10^-4 M by sulforhodamine B assay; conditions: read-out: Activity
[5] = test system: MDA-MB-468; test: Growth inhibition of human MDA-MB-468 cells assessed as cell growth at 10^-7 M by sulforhodamine B assay; conditions: read-out: Activity
[6] = test system: ACHN; test: Growth inhibition of human ACHN cells assessed as cell growth at 10^-4 M by sulforhodamine B assay; conditions: read-out: Activity
[7] = test system: Malme-3M; test: Growth inhibition of human MALME-3M cells assessed as cell growth at 10^-7 M by sulforhodamine B assay; conditions: read-out: Activity
[8] = test system: RXF 393; test: Growth inhibition of human RXF393 cells assessed as cell growth at 10^-6 M by sulforhodamine B assay; conditions: read-out: Activity
[9] = test system: CCRF-CEM; test: Growth inhibition of human CCRF-CEM cells assessed as cell growth at 10^-4 M by sulforhodamine B assay; conditions: read-out: Activity
[10] = test system: LOX IMVI; test: Growth inhibition of human LOXIMVI cells assessed as cell growth at 10^-8 M by sulforhodamine B assay; conditions: read-out: Activity
[11] = test system: SK-OV-3; test: Growth inhibition of human SKOV3 cells by sulforhodamine B assay
[12] = test system: SK-MEL-2; test: Growth inhibition of human SK-MEL-2 cells by sulforhodamine B assay
[13] = test system: HCT-116; test: Growth inhibition of human HCT116 cells assessed as cell growth at 10^-6 M by sulforhodamine B assay; conditions: read-out: Activity
[14] = test system: RPMI-8226; test: Growth inhibition of human RPMI8226 cells assessed as cell growth at 10^-8 M by sulforhodamine B assay; conditions: read-out: Activity
[15] = test system: KM12; test: Growth inhibition of human KM12 cells assessed as cell growth at 10^-7 M by sulforhodamine B assay; conditions: read-out: Activity
[16] = test system: SR; test: Growth inhibition of human SR cells assessed as cell growth at 10^-6 M by sulforhodamine B assay; conditions: read-out: Activity
[17] = Growth inhibition of human NCI-ADR-RES cells assessed as cell growth at 10^-4 M by sulforhodamine B assay; conditions: read-out: Activity
[18] = test system: MDA-MB-231; test: Growth inhibition of human MDA-MB-231 cells assessed as cell growth at 10^-6 M by sulforhodamine B assay; conditions: read-out: Activity
[19] = test system: NCI-H522; test: Growth inhibition of human NCI-H522 cells assessed as cell growth at 10^-8 M by sulforhodamine B assay; conditions: read-out: Activity
[20] = test system: SK-MEL-2; test: Growth inhibition of human SK-MEL-2 cells assessed as cell growth at 10^-8 M by sulforhodamine B assay; conditions: read-out: Activity
[21] = test system: LOX IMVI; test: Growth inhibition of human LOXIMVI cells assessed as cell growth at 10^-7 M by sulforhodamine B assay; conditions: read-out: Activity
[22] = test system: MDA-MB-435; test: Growth inhibition of human MDA-MB-435 cells assessed as cell growth at 10^-8 M by sulforhodamine B assay; conditions: read-out: Activity
[23] = test system: HL-60(TB); test: Growth inhibition of human HL-60(TB) cells assessed as cell growth at 10^-6 M by sulforhodamine B assay; conditions: read-out: Activity
[24] = test system: CAKI-1; test: Growth inhibition of human CAKI-1 cells assessed as cell growth at 10^-7 M by sulforhodamine B assay; conditions: read-out: Activity
[25] = test system: UO-31; test: Growth inhibition of human UO31 cells assessed as cell growth at 10^-7 M by sulforhodamine B assay; conditions: read-out: Activity
[26] = test system: NCI-H522; test: Growth inhibition of human NCI-H522 cells by sulforhodamine B assay
[27] = test system: DU-145; test: Growth inhibition of human DU145 cells assessed as cell growth at 10^-4 M by sulforhodamine B assay; conditions: read-out: Activity
[28] = test system: HCT-15; test: Growth inhibition of human HCT15 cells assessed as cell growth at 10^-4 M by sulforhodamine B assay; conditions: read-out: Activity
[29] = test system: MCF7; test: Growth inhibition of human MCF7 cells assessed as cell growth at 10^-7 M by sulforhodamine B assay; conditions: read-out: Activity
[30] = test system: SK-MEL-2; test: Growth inhibition of human SK-MEL-2 cells assessed as cell growth at 10^-4 M by sulforhodamine B assay; conditions: read-out: Activity
[31] = test system: A498; test: Growth inhibition of human A498 cells assessed as cell growth at 10^-4 M by sulforhodamine B assay; conditions: read-out: Activity
[32] = test system: BT-549; test: Growth inhibition of human BT549 cells assessed as cell growth at 10^-4 M by sulforhodamine B assay; conditions: read-out: Activity
[33] = test system: IGROV-1; test: Growth inhibition of human IGROV1 cells by sulforhodamine B assay
[34] = test system: M14; test: Growth inhibition of human M14 cells assessed as cell growth at 10^-7 M by sulforhodamine B assay; conditions: read-out: Activity
[35] = read-out: LC50 (the source's name)
[36] = read-out: pLC50 (the source's name) (converted)

`C/C=C(/C)C(=O)O[C@@H]1CC(C)(C)C[C@H]2C3=CC[C@@H]4[C@@]5(C)CC[C@H](O)C(C)(C)[C@@H]5CC[C@@]4(C)[C@]3(C)CC[C@@]12C(=O)O` [Reduced Lantadene A] showed a GI50 ([1]; read-out: GI50) of 1.71 µM, an LC50 ([1]; read-out: LC50) of 8.43 µM and a TGI ([1]; read-out: TGI) of 3.79 µM. The GI50 ([1]; read-out: pGI50 (converted)) was 1.7 µM, the LC50 ([1]; read-out: pLC50 (converted)) was 8.51 µM and the TGI ([1]; read-out: pTGI (converted)) was 3.8 µM. For the same compound, the growth at 100 µM [2] was -58%, the “growth inhibition (GI)” value [3] was “Active” and the growth at 100 µM [4] was -62%. It also gave a growth at 0.1 µM [5] of 86%, a growth at 100 µM [6] of -69% and a growth at 0.1 µM [7] of 94%. The growth at 1 µM [8] was 87%, the growth at 100 µM [9] was -2% and the growth at 0.01 µM [10] was 97%. For the same compound, the GI50 ([11]; read-out: GI50) was 1.87 µM, the GI50 ([11]; read-out: pGI50 (converted)) was 1.86 µM and the GI50 ([12]; read-out: GI50) was 2.2 µM. It also gave a CC50 [12, 35] of 8.29 µM, a TGI ([12]; read-out: TGI) of 4.27 µM and a GI50 ([12]; read-out: pGI50 (converted)) of 2.19 µM. For the same compound, the CC50 [12, 36] was 8.32 µM, the TGI ([12]; read-out: pTGI (converted)) was 4.27 µM and the growth at 1 µM [13] was 82%. The growth at 0.01 µM [14] was 96%, the growth at 0.1 µM [15] was 103% and the growth at 1 µM [16] was 89%. The growth at 100 µM [17] was -30%, the growth at 1 µM [18] was 89% and the growth at 0.01 µM [19] was 102%. For the same compound, the growth at 0.01 µM [20] was 107%, the growth at 0.1 µM [21] was 100% and the growth at 0.01 µM [22] was 98%. The growth at 1 µM [23] was 99%, the growth at 0.1 µM [24] was 96% and the growth at 0.1 µM [25] was 96%. It also gave a GI50 ([26]; read-out: GI50) of 2.18 µM, a CC50 [26, 35] of 32.4 µM and a TGI ([26]; read-out: TGI) of 5.42 µM. The GI50 ([26]; read-out: pGI50 (converted)) was 2.19 µM, the CC50 [26, 36] was 32.4 µM and the TGI ([26]; read-out: pTGI (converted)) was 5.37 µM. The growth at 100 µM [27] was -46%, the growth at 100 µM [28] was -64% and the growth at 0.1 µM [29] was 96%. For the same compound, the growth at 100 µM [30] was -71%, the growth at 100 µM [31] was -74% and the growth at 100 µM [32] was -90%. The GI50 ([33]; read-out: GI50) was 2.32 µM, the CC50 [33, 35] was 9.24 µM and the TGI ([33]; read-out: TGI) was 4.63 µM. For the same compound, the GI50 ([33]; read-out: pGI50 (converted)) was 2.29 µM, the CC50 [33, 36] was 9.33 µM and the TGI ([33]; read-out: pTGI (converted)) was 4.68 µM. It also gave a growth at 0.1 µM [34] of 92%.
